# Reference: US7425577B2, “Lipase-colipase inhibitor” (Forskarpatent 1 SYD AB, priority 2003, dated 2008)
# Entries after “also recorded” stand apart in the source; their conditions may differ.
# Legend:
# [1] = Acute effect on blood lipids: single dose plus Intralipid in overnight-fasted rats; assay type: in vivo, female Sprague-Dawley rats; settings: single dose 200 μl plus 1 ml Intralipid (200 mg); 0, 30, 60, 120 and 180 min
# Protocol: Blood was drawn in rats from the intra-orbital bullar plexus under anaesthesia and collected in ice-cold tubes. Serum was obtained by centrifugation at 3000 g for 15 min at 4° C. For acute effect of dimethylaminoethyl dodecyl ether on blood lipids, overnight-fasted rats were given 200 μl dimethylaminoethyl dodecyl ether plus 1 ml (200 mg) Intralipids orally through a gastric gavage and blood collected at 0, 30, 60, 120 and 180 min. Plasma triglycerides was determined with an Sigma diagnostics kit. Plasma fatty acids were measured by NEFAC kit (Wako chemicals GmbH, Neuss, Germany). Plasma PYY (3-36) and leptin were measured with the PYY Enzyme Immunossay kit and leptin Enzyme Immunossay (Phoenix Pharmaceuticals, USA)
# [2] = Blood lipids analysis after 5 days of oral administration; assay type: in vivo, female Sprague-Dawley rats; settings: 50 μl orally for 5 days
# Protocol: (§1) Female female Sprague-Dawley rats were used for all experiments. Rats were housed in a temperature-controlled room (22±1° C.) under a 12-h light (6:00-18:00)/12-h cycle, given free access to water, and fed an libitum on a standard chow unless otherwise stated for a high-fat diet experiment. All procedures using animals were approved by the local ethics committee and followed the guidelines for experiments in animals (European Economic Community Council Directive 86/609/EEC).
# Blood was drawn in rats from the intra-orbital bullar plexus under anaesthesia and collected in ice-cold tubes. Serum was obtained by centrifugation at 3000 g for 15 min at 4° C. […] Plasma triglycerides was determined with an Sigma diagnostics kit. Plasma fatty acids were measured by NEFAC kit (Wako chemicals GmbH, Neuss, Germany). Plasma PYY (3-36) and leptin were measured with the PYY Enzyme Immunossay kit and leptin Enzyme Immunossay (Phoenix Pharmaceuticals, USA)
# Pancreatic lipase = Pancreatic lipase activity and protein expression in pancreas after 5 days of treatment; assay type: in vivo, rat; settings: pancreas of rats given 50 μl for 5 days by gastric gavage
# Protocol: At the end of experiment, rats were killed and the pancreas collected for assay of lipase activity and protein expression. Lipase activity was determined with pH stat titration (Mettle Components DK 10, DK 11, DV11) using tributyrin dispersed in bile salt as substrate (Borgström & Erlanson). Lipase expression was analysed by western blot.
# Pancreas was homogenized in 0.5% digitonin buffer containing 10 mM sodium phosphate (pH6.0) and 1 mini complete tablet on ice. After centrifuge at 14000 g, 4° C. for 10 min, the supernatant was collected and heating at 65° C., 15 min for inactivate endogenous lipase. The protein amount was measured by BCA method. Equal amount (50 μg) protein was load on 10% SDS-polyacrylamide gels, transferred to the nitrocellulose membranes and then incubated with anti-lipase antibody in the dilution 1:1000 at 4° C. overnight. Pancreatic lipase protein was detected using a horseradish peroxidase-conjugated donkey anti-rabbit antibody (1:8000) for 60 min at room temperature followed with an enhanced chemiluminescence (Pierce).
# [3] = Evaluation of food intake and body weight, oral gavage for 5 days; assay type: in vivo, female Sprague-Dawley rats
# Protocol: as §1
# For measurement of food consumption rats were individually housed in cage and given a high-fat diet for a week before the beginning of the experiment. […] Rat with as libitum access to high-fat food were orally given dimethylaminoethyl dodecyl ether (37.5 or 50 μl dissolved in 1% methycellulose) through a gastric gavage or 1% methyl cellulose at the onset of the dark cycle (18:00) and food intake was measured at 15 h following dimethylaminoethyl dodecyl ether administration from pre-weighed portions of food dispensed from were cage top. Cages were carefully monitored for evidence of food spillage or grinding.
# lipase = molecular target: T1, lipase (Homo sapiens, UniProt P04118+P16233); test: Inhibition of lipase activity in vitro assay, tributyrin or Intralipid as substrates (FIGS. 1A and 1B); assay type: biochemical; settings: for Inhibition of lipase activity in vitro: tributyrin or intralipid as substrates
# T1 sequence (P16233 17-465): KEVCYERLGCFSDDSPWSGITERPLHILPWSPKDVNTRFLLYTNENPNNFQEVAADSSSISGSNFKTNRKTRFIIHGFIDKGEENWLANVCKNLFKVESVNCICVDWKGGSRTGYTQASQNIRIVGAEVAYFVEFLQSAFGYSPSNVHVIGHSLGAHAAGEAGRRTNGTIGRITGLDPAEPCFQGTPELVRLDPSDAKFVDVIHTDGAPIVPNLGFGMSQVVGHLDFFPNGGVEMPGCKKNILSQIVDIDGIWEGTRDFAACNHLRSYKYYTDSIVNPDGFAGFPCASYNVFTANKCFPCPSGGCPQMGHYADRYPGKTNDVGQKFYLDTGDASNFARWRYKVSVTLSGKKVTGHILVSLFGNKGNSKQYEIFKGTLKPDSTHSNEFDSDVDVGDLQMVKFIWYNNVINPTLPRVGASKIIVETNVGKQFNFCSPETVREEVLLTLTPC
# T1 sequence (P04118 23-112): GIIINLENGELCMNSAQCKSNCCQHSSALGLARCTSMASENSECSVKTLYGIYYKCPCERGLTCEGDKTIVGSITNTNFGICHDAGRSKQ
smiles,measurement,setting,value
CCCCCCCCCCCCOCCN(C)C [dimethylaminoethyl dodecyl ether],Serum (plasma) fatty acids vs Intralipid alone,[1],significantly reduced; also recorded: decreased
same,Serum (plasma) triglycerides vs Intralipid alone,[1],significantly reduced
same,Serum (plasma) cholesterol level vs vehicle,[2],no effect; also recorded: no difference
same,Serum fatty acids level vs vehicle,[2],"decreased serum triglyceride and fatty acids, but this was not statistic significance; also recorded: decreased"
same,Serum triglyceride level vs vehicle,[2],"decreased serum triglyceride and fatty acids, but this was not statistic significance; also recorded: decreased"
same,Pancreatic lipase activity vs controls,Pancreatic lipase,not changed
same,Pancreatic lipase protein expression vs controls (western blot),Pancreatic lipase,slightly reduced; also recorded: reduced
same,Food intake vs vehicle,"[3]; rats fed high-fat diet, 25 μl orally",no food intake inhibition
same,Food intake vs vehicle,"[3]; rats fed high-fat diet, 37.5 μl by gastric gavage","a trend towards reduced food intake was observed, however this did not reach statistic significance"
same,Food intake vs vehicle,"[3]; rats fed high-fat diet, 50 μl by gastric gavage, up to 5 days",highly significant reduction in food intake; also recorded: significantly inhibited
same,Body weight vs non-treated group,"[3]; rats fed high-fat diet, 50 μl daily for 5 days",decreased body weight; also recorded: significantly loss of body weight
same,Food intake vs controls,"[3]; rats fed low-fat diet, 37.5 and 50 μl, 5 testing days",failed to decrease food intake
same,Dose at which the maximum inhibition of lipase activity was seen,lipase; Intralipid as substrate,80 µmol
same,Dose at which the maximum inhibition of lipase activity was seen,lipase; tributyrin as substrate,40 µmol
same,Inhibition of lipase activity in vitro,lipase,completely inhibited lipase activity
same,Inhibition of lipase activity in vitro,lipase; listed as Dimethylaminoethyl dodecyl ether,inhibited lipase activity in a dose-depended manner
